pEC50: −log10 of the molar value. Read-outs that look alike come from different tables or passages of the source.
Test system: parasite
Assay: Parasite LDH growth assay (Parasite Assay), antiparasite potency
Type: cell-based
Settings: parasite LDH growth assay, ring stage parasites, 72 hours incubation at 37° C., read-out: EC50
Experimental: Assessing Antiparasite Potency in a Parasite LDH Growth Assay (Parasite Assay)
The parasite stock was maintained at 4% haematocrit in RPMI-Hepes media buffered with sodium bicarbonate and supplemented with 5% heat inactivated human serum and 0.5% albumax.
On the day of assay set up, a blood smear of the parasite culture was Giemsa stained and counted. The parasitemia was adjusted to 0.7% rings and the haematocrit was diluted to 2% in RPMI-Hepes media buffered with sodium bicarbonate and supplemented with 5% heat inactivated human serum and 0.5% albumax. 30 ul of diluted parasites are then added into 10 ul of media+compound in pre-prepared Greiner TC assay plates. Parasite assay plates were placed in gassed humidified boxes in single layer and allowed to incubate at 37° C. for 72 hours. After 72 hours growth, assay plates are sealed with parafilm and frozen flat, in single file at −80° C. overnight. On the following day, assay plates are allowed to thaw at room temperature for 4 hours to which an LDH assay is performed to measure parasite growth.

SMILES	pEC50 (72 h)	pEC50
CCC1(CC)CC(=O)N([C@H]2c3cc(C(=O)N[C@@H]4c5ccccc5C[C@H]4O)ccc3OC[C@@H]2C)C(=N)N1 [Example 120, (3R,4R)-4-(4,4-diethyl-2-imino-6-oxo-hexahydropyrimidin-1-yl)-N-[(1R,2R)-2-hydroxyindan-1-yl]-3-methyl-chromane-6-carboxamide]	9.10	–
CC[C@]1(C)CC(=O)N([C@@H]2CCc3ccc(C(=O)N[C@@H]4c5ccccc5OC(C)(C)[C@H]4O)cc32)C(=N)N1 [Example 121, (3R)-3-[(4R)-4-ethyl-2-imino-4-methyl-6-oxo-hexahydropyrimidin-1-yl]-N-[(3S,4R)-3-hydroxy-2,2-dimethyl-chroman-4-yl]indane-5-carboxamide]	9.22	–
CC[C@]1(C)CC(=O)N([C@@H]2C[C@@H](C)c3ccc(C(=O)N[C@@H]4c5ccccc5OC[C@@]4(C)O)cc32)C(=N)N1 [Example 131, (1R,3R)-3-[(4R)-4-ethyl-2-imino-4-methyl-6-oxo-hexahydropyrimidin-1-yl]-N-[(3S,4R)-3-hydroxy-3-methyl-chroman-4-yl]-1-methyl-indane-5-carboxamide]	8.70	–
C[C@@H]1Cc2ccc(C(=O)N[C@@H]3c4ccccc4OC(C)(C)[C@H]3O)cc2[C@@H]1N1C(=N)NC(C)(C)CC1=O [Example 135, (2R,3R)-N-[(3S,4R)-3-hydroxy-2,2-dimethyl-chroman-4-yl]-3-(2-imino-4,4-dimethyl-6-oxo-hexahydropyrimidin-1-yl)-2-methyl-indane-5-carboxamide]	9.05	–
C[C@@H]1C[C@@H](N2C(=N)NC(C)(C)CC2=O)c2cc(C(=O)N[C@@H]3c4ccccc4OC(C)(C)[C@H]3O)ccc21 [Example 138, (1R,3R)-N-[(3S,4R)-3-hydroxy-2,2-dimethyl-chroman-4-yl]-3-(2-imino-4,4-dimethyl-6-oxo-hexahydropyrimidin-1-yl)-1-methyl-indane-5-carboxamide]	9.05	–
CCC1(CC)CC(=O)N([C@@H]2CCOc3ccc(C(=O)N[C@@H]4c5ccccc5C5(CC5)[C@H]4O)cc32)C(=N)N1 [Example 154, (4R)-4-(4,4-diethyl-2-imino-6-oxo-hexahydropyrimidin-1-yl)-N-[(1′R,2′R)-2′-hydroxyspiro[cyclopropane-1,3′-indane]-1′-yl]chromane-6-carboxamide]	9.15	–
CCC1(CC)CC(=O)N([C@@H]2C[C@H](OC)c3ccc(C(=O)N[C@@H]4c5ccccc5C[C@@]4(C)O)cc32)C(=N)N1 [Example 158, (1S,3R)-3-(4,4-diethyl-2-imino-6-oxo-hexahydropyrimidin-1-yl)-N-[(1R,2R)-2-hydroxy-2-methyl-indan-1-yl]-1-methoxy-indane-5-carboxamide]	9.05	–
CCC1(CC)CC(=O)N([C@@H]2CCc3ccc(C(=O)N[C@@H]4c5ccccc5OC(C)(C)[C@H]4O)cc32)C(=N)N1 [Example 159, (3R)-3-(4,4-diethyl-2-imino-6-oxo-hexahydropyrimidin-1-yl)-N-[(3S,4R)-3-hydroxy-2,2-dimethyl-chroman-4-yl]indane-5-carboxamide]	9.30	–
CCC1(CC)CC(=O)N(C2CCCc3ccc(C(=O)N[C@@H]4c5ccccc5OC[C@@]4(C)O)cc32)C(=N)N1 (stereo partly drawn) [Example 161, 8-(4,4-diethyl-2-imino-6-oxotetrahydropyrimidin-1(2H)-yl)-N-((3S,4R)-3-hydroxy-3-methylchroman-4-yl)-5,6,7,8-tetrahydronaphthalene-2-carboxamide]	9.10	–
CC[C@]1(C)CC(=O)N([C@H]2c3cc(C(=O)N[C@@H]4c5ccccc5OC(C)(C)[C@H]4O)ccc3C[C@H]2C)C(=N)N1 [Example 168, (2R,3R)-3-[(4R)-4-ethyl-2-imino-4-methyl-6-oxo-hexahydropyrimidin-1-yl]-N-[(3S,4R)-3-hydroxy-2,2-dimethyl-chroman-4-yl]-2-methyl-indane-5-carboxamide]	9.40	–
CC[C@]1(C)CC(=O)N([C@H]2c3cc(C(=O)N[C@@H]4c5ccccc5OC(C)(C)[C@H]4O)ccc3C[C@@H]2C)C(=N)N1 [Example 169, (2S,3R)-3-[(4R)-4-ethyl-2-imino-4-methyl-6-oxo-hexahydropyrimidin-1-yl]-N-[(3S,4R)-3-hydroxy-2,2-dimethyl-chroman-4-yl]-2-methyl-indane-5-carboxamide]	9.52	–
CC[C@]1(C)CC(=O)N([C@@H]2C[C@@H](C)c3ccc(C(=O)N[C@@H]4c5ccccc5OC(C)(C)[C@H]4O)cc32)C(=N)N1 [Example 171, (1R,3R)-3-[(4R)-4-ethyl-2-imino-4-methyl-6-oxo-hexahydropyrimidin-1-yl]-N-[(3S,4R)-3-hydroxy-2,2-dimethyl-chroman-4-yl]-1-methyl-indane-5-carboxamide]	9.15	–
CC1(C)CC(=O)N([C@@H]2CCOc3ccc(C(=O)N[C@@H]4c5ccccc5OC(C)(C)[C@@]4(C)O)cc32)C(=N)N1 [Example 172, (4R)-N-[(3S,4R)-3-hydroxy-2,2,3-trimethyl-chroman-4-yl]-4-(2-imino-4,4-dimethyl-6-oxo-hexahydropyrimidin-1-yl)chromane-6-carboxamide]	9.05	–
CCC1(CC)CC(=O)N([C@@H]2CCOc3ccc(C(=O)NC4c5ccccc5OC4(C)CO)cc32)C(=N)N1 (stereo partly drawn) [Example 176B, (4R)-4-(4,4-diethyl-2-imino-6-oxo-hexahydropyrimidin-1-yl)-N-[2-(hydroxymethyl)-2-methyl-3H-benzofuran-3-yl]chromane-6-carboxamide]	–	8.11
CC1(C)CC(=O)N([C@H]2c3cc(C(=O)N[C@@H]4c5ccccc5OC(C)(C)[C@H]4O)ccc3OC2(C)C)C(=N)N1 [Example 182, (3S)-N-[(3S,4R)-3-hydroxy-2,2-dimethyl-chroman-4-yl]-3-(2-imino-4,4-dimethyl-6-oxo-hexahydropyrimidin-1-yl)-2,2-dimethyl-3H-benzofuran-5-carboxamide]	8.21	–
COC1COc2ccc(C(=O)N[C@@H]3c4ccccc4OC[C@@]3(C)O)cc2C1N1C(=N)NC(C)(C)CC1=O (stereo partly drawn) [Example 186, N-[(3S,4R)-3-hydroxy-3-methyl-chroman-4-yl]-4-(2-imino-4,4-dimethyl-6-oxo-hexahydropyrimidin-1-yl)-3-methoxy-chromane-6-carboxamide]	7.15	–
CC1(C)CC(=O)N([C@@H]2CCOc3ccc(C(=O)N[C@@H]4c5cc(F)ccc5OC(C)(C)[C@H]4O)cc32)C(=N)N1 [Example 189, (4R)-N-[(3S,4R)-6-fluoro-3-hydroxy-2,2-dimethyl-chroman-4-yl]-4-(2-imino-4,4-dimethyl-6-oxo-hexahydropyrimidin-1-yl)chromane-6-carboxamide]	9.00	–
CC[C@]1(C)CC(=O)N([C@@H]2CCOc3ccc(C(=O)NC4c5c(F)cccc5OCC4(C)O)cc32)C(=N)N1 (stereo partly drawn) [Example 193B, (4R)-4-[(4R)-4-ethyl-2-imino-4-methyl-6-oxo-hexahydropyrimidin-1-yl]-N-(5-fluoro-3-hydroxy-3-methyl-chroman-4-yl)chromane-6-carboxamide]	–	9.10
CCC1(CC)CC(=O)N([C@@H]2CCOc3ccc(C(=O)NC(c4ccccc4)c4ccccc4)cc32)C(=N)N1 [Example 194, (4R)-N-benzhydryl-4-(4,4-diethyl-2-imino-6-oxo-hexahydropyrimidin-1-yl)chromane-6-carboxamide]	9.05	–
CC1(C)CC(=O)N([C@@H]2CC(F)(F)c3ccc(C(=O)N[C@@H]4c5ccccc5OC(C)(C)[C@H]4O)cc32)C(=N)N1 [Example 199, (3R)-1,1-difluoro-N-[(3S,4R)-3-hydroxy-2,2-dimethyl-chroman-4-yl]-3-(2-imino-4,4-dimethyl-6-oxo-hexahydropyrimidin-1-yl)indane-5-carboxamide]	8.96	–
CC[C@]1(C)CC(=O)N([C@H]2c3cc(C(=O)N[C@@H]4c5ccccc5C[C@@]4(C)O)ccc3OC[C@@H]2COC)C(=N)N1 [Example 202, (3S,4R)-4-[(4R)-4-ethyl-2-imino-4-methyl-6-oxo-hexahydropyrimidin-1-yl]-N-[(1R,2R)-2-hydroxy-2-methyl-indan-1-yl]-3-(methoxymethyl)chromane-6-carboxamide]	9.10	–
CCC1(CC)CC(=O)N([C@@H]2C[C@@H](OC)c3ccc(C(=O)N[C@@H]4c5ccccc5OC[C@@]4(C)O)cc32)C(=N)N1 [Example 203, (1R,3R)-3-(4,4-diethyl-2-imino-6-oxo-hexahydropyrimidin-1-yl)-N-[(3S,4R)-3-hydroxy-3-methyl-chroman-4-yl]-1-methoxy-indane-5-carboxamide]	8.23	–
CCC1(CC)CC(=O)N(C2c3cc(C(=O)N[C@@H]4c5ccccc5C[C@]4(C)O)ccc3OCC2OC)C(=N)N1 (stereo partly drawn) [Example 213, 4-(4,4-diethyl-2-imino-6-oxo-hexahydropyrimidin-1-yl)-N-[(1R,2S)-2-hydroxy-2-methyl-indan-1-yl]-3-methoxy-chromane-6-carboxamide]	8.05	–
CCC1(CC)CC(=O)N([C@H]2CCS(=O)(=O)c3ccc(C(=O)N[C@@H]4c5ccccc5C[C@H]4O)cc32)C(=N)N1 [Example 223, (4S)-4-(4,4-diethyl-2-imino-6-oxo-hexahydropyrimidin-1-yl)-N-[(1R,2R)-2-hydroxyindan-1-yl]-1,1-dioxo-3,4-dihydro-2H-thiochromene-6-carboxamide]	6.52	–
CC[C@]1(C)CC(=O)N([C@@H]2CCOc3ccc(C(=O)N[C@@H]4c5cc(F)ccc5OC(C)(C)[C@H]4O)cc32)C(=N)N1 [Example 224, (4R)-4-[(4R)-4-ethyl-2-imino-4-methyl-6-oxo-hexahydropyrimidin-1-yl]-N-[(3S,4R)-6-fluoro-3-hydroxy-2,2-dimethyl-chroman-4-yl]chromane-6-carboxamide]	9.52	–
